Test results: publication PMC4536076, “Chemical Library Screening and Structure-Function Relationship Studies Identify Bisacodyl as a Potent and Selective Cytotoxic Agent Towards Quiescent Human Glioblastoma Tumor Stem-Like Cells” (PLoS ONE, 2015)
Where a name gives a salt, the structure may show the parent alone.

Experiments:
[1] = test system: proliferating TG1 GSCs; assay: ATP-Glo dose-response, proliferating TG1 GSCs; type: cell-based, human; details: SAR study, ATP-Glo cell survival assay, 24 h, triplicate; read-out: Proliferating TG1 GSCs EC50
Method: (§1) The EC50 value was determined for each compound by fitting the data points according to the following equation: y=Smax+Smin*(x*1/EC50)^n/1+(x*1/EC50)^n where y represents the expected response, x is the chemical compound concentration, S max and S min are the maximum and minimum responses recorded, respectively and n is the Hill coefficient. Curve fitting was performed using Microsoft Excel Solver component.
(§2) Proliferating or quiescent TG1 cells were seeded in 50 μL of their respective media (30 000 and 40 000 viable cells/well, respectively) into 96-well opaque bottom plates (Greiner, Courtaboeuf, France). Compound treatment was performed by adding 50 μL of compound solutions (in the presence of 2% DMSO in culture medium). […] All compounds were tested in triplicate in each experiment. Independent experiments were performed at least twice for almost all of the compounds.

[2] = test system: quiescent TG1 GSCs; assay: ATP-Glo dose-response, quiescent TG1 GSCs; type: cell-based, human; details: SAR study, ATP-Glo cell survival assay, 24 h, triplicate; read-out: Quiescent TG1 GSCs EC50
Method: as §1, §2

[3] = test system: proliferating TG1 GSCs; details: 50 μM
Method: (§3) Proliferating or quiescent TG1 GSCs were seeded (30 000 and 40 000 viable cells/well, respectively) into 96-well opaque bottom plates (Greiner) with the Biomek FX robot (Beckman Coulter). Each compound from the Prestwick Library was then added (final concentration: 50 μM; 1% DMSO). Each molecule was tested once. Negative control wells (12/96 per assay plate) contained cells treated with 1% DMSO (final concentration) and positive control wells (4/96 per assay plate) contained cells treated with the fungal toxin ophiobolin A (Sigma Aldrich) at 50 μM with 1% DMSO. […] Luminescence in each well was measured with the Victor3 plate reader (PerkinElmer).
(§4) Relative ATP levels in each well were determined by calculating the percentage of luminescent signal in the well with respect to the average signal measured in negative control wells.
(§5) Primary screen hits were further tested in duplicate, at two concentrations (50 and 5 μM) on proliferating and quiescent TG1 GSCs. Cell plating and treatment with compounds were as for the primary screen. Hit selection/confirmation criteria for quiescent cells were as described above.

[4] = test system: quiescent TG1 GSCs; details: 50 μM
Method: as §3, §4, §5

| Compound | Activity on proliferating TG1 GSCs (hit compounds reducing ATP levels) ([3]; primary screen, 24 h) | Activity on quiescent TG1 GSCs (hit compounds reducing ATP levels) ([4]; primary screen, 24 h) | also measured |
| --- | --- | --- | --- |
| 4-hydroxyphenyl-4-phenyl-(pyridin-2-yl)-methane [Compound 7] | – | – | EC50 [1]: > 100 µM; EC50 [2]: 17.1 ± 6.3 µM |
| 4-hydroxyphenyl-4-trifluoromethylphenyl-2-pyrimidyl-methane [Compound 11] | – | – | EC50 [1]: > 100 µM; EC50 [2]: 12.4 ± 6.9 µM |
| CCCCC(CC)CNC(=N)NC(=N)NCCCCCCNC(=N)NC(=N)NCC(CC)CCCC (stereo not drawn) [Alexidine dihydrochloride] | yes | yes | – |
| CCCCc1oc2ccccc2c1C(=O)c1cc(I)c(OCCN(CC)CC)c(I)c1 [Amiodarone hydrochloride] | yes | yes | – |
| Clc1ccc(CCC(Cn2ccnc2)Sc2c(Cl)cccc2Cl)cc1 (stereo not drawn) [Butoconazole nitrate] | yes | yes | – |
| CC[C@H]1CN2CCc3cc(OC)c(OC)cc3[C@@H]2C[C@@H]1C[C@H]1NCCc2cc(O)c(OC)cc21.Cl.Cl.O.O.O.O.O.O.O [Cephaeline dihydrochloride heptahydrate] | yes | yes | – |
| CCN(CC)CCOc1ccc(C(=C(Cl)c2ccccc2)c2ccccc2)cc1.O=C(O)CC(O)(CC(=O)O)C(=O)O [Clomiphene citrate (Z, E)] | yes | yes | – |
| Clc1ccccc1C(c1ccccc1)(c1ccccc1)n1ccnc1 [Clotrimazol] | yes | yes | – |
| CC/C(=C(/CC)c1ccc(O)cc1)c1ccc(O)cc1 [Diethylstilbestrol] | yes | yes | – |
| Cl.Cl.Fc1ccc(C(OCCN2CCN(CCCc3ccccc3)CC2)c2ccc(F)cc2)cc1 [GBR 12909 dihydrochloride] | yes | yes | – |
| Cc1cc2c(C(C)C)c(O)c(O)c(C=O)c2c(O)c1-c1c(C)cc2c(C(C)C)c(O)c(O)c(C=O)c2c1O [Gossypol] | yes | yes | – |
| Clc1ccc(C(Cn2ccnc2)OCc2c(Cl)cccc2Cl)c(Cl)c1 (stereo not drawn) [Isoconazole] | yes | yes | – |
| CC(=O)O[C@H]1C[C@H](O[C@H]2[C@@H](O)C[C@H](O[C@H]3[C@@H](O)C[C@H](O[C@H]4CC[C@@]5(C)[C@H](CC[C@@H]6[C@@H]5C[C@@H](O)[C@]5(C)[C@@H](C7=CC(=O)OC7)CC[C@]65O)C4)O[C@@H]3C)O[C@@H]2C)O[C@H](C)[C@H]1O[C@@H]1O[C@H](CO)[C@@H](O)[C@H](O)[C@H]1O [Lanatoside C] | yes | yes | – |
| CC[C@@H](C(=O)[C@@H](C)[C@@H](O)[C@H](C)CCc1ccc(C)c(O)c1C(=O)[O-])[C@H]1O[C@](CC)([C@H]2CC[C@](O)(CC)[C@H](C)O2)C[C@@H]1C.[Na+] [Lasalocid sodium salt] | yes | yes | – |
| O[C@H]1[C@H]2c3cc4c(cc3CN3CCC(=C[C@@H]1O)[C@H]23)OCO4 [Lycorine hydrochloride] | yes | yes | – |
| Cc1cccc(CN2CCN(C(c3ccccc3)c3ccc(Cl)cc3)CC2)c1.Cl.Cl (stereo not drawn) [Meclozine dihydrochloride] | yes | yes | – |
| OC(c1cc(C(F)(F)F)nc2c(C(F)(F)F)cccc12)C1CCCCN1 (stereo not drawn) [Mefloquine hydrochloride] | yes | yes | – |

| Compound | Activity on proliferating TG1 GSCs (hit compounds reducing ATP levels) ([3]; primary screen, 24 h) | Activity on quiescent TG1 GSCs (hit compounds reducing ATP levels) ([4]; primary screen, 24 h) | also measured |
| --- | --- | --- | --- |
| CC1=CC(=O)c2ccccc2C1=O [Menadione] | yes | yes | – |
| Clc1ccc(COC(Cn2ccnc2)c2ccc(Cl)cc2Cl)c(Cl)c1 (stereo not drawn) [Miconazole] | yes | yes | – |
| CCOC(=O)C1=C(C)NC(C)=C(C(=O)OC)C1c1cccc([N+](=O)[O-])c1 (stereo not drawn) [Nitrendipine] | yes | – | Activity on quiescent TG1 CSCs (hit compounds increasing ATP levels) ([4]; primary screen, 24 h): yes |
| O=C(N/N=C/c1ccc([N+](=O)[O-])o1)c1ccc(O)cc1 [Nitrofuroxazide] | yes | yes | – |
| CC(C)=C[C@H]1C[C@H](C)[C@]2(CC[C@]3(C)C[C@H]4[C@H](C(=O)C[C@@]4(C)O)/C(C=O)=C\C[C@H]32)O1 [Ophiobolin A] | – | – | cytotoxicity (positive control) ([3]; 1% DMSO, proliferating GSCs): cytotoxic; cytotoxicity (positive control) ([4]; 1% DMSO, quiescent GSCs): cytotoxic |
| COc1cc2nc(N3CCN(C(=O)c4ccco4)CC3)nc(N)c2cc1OC [Prazosin hydrochloride] | yes | yes | – |
| COc1cc(NC(C)CCCN)c2ncccc2c1 (stereo not drawn) [Primaquine diphosphate] | yes | yes | – |
| C[n+]1cc2c3c(ccc2c2ccc4cc5c(cc4c21)OCO5)OCO3 [Sanguinarine] | yes | yes | – |
| Clc1ccc(C(Cn2ccnc2)OCc2csc3c(Cl)cccc23)c(Cl)c1 (stereo not drawn) [Sertaconazole nitrate] | yes | yes | – |
| CN[C@H]1CC[C@@H](c2ccc(Cl)c(Cl)c2)c2ccccc21 [Sertraline] | yes | yes | – |
| CC/C(=C(\c1ccccc1)c1ccc(OCCN(C)C)cc1)c1ccccc1 [Tamoxifen citrate] | yes | yes | – |
| CSc1ccc2c(c1)N(CCC1CCCCN1C)c1ccccc1S2 (stereo not drawn) [Thioridazine hydrochloride] | yes | – | – |
| CCCCCCCCCCCCCCCC[N+](C)(C)CCN(Cc1ccc(OC)cc1)c1ncccn1 [Thonzonium bromide] | yes | yes | – |
| C[C@H]1CC[C@]2(NC1)O[C@H]1C[C@H]3[C@@H]4CC[C@H]5C[C@@H](O[C@@H]6O[C@H](CO)[C@H](O[C@@H]7O[C@H](CO)[C@@H](O)[C@H](O[C@@H]8OC[C@@H](O)[C@H](O)[C@H]8O)[C@H]7O[C@@H]7O[C@H](CO)[C@@H](O)[C@H](O)[C@H]7O)[C@H](O)[C@H]6O)CC[C@]5(C)[C@H]4CC[C@]3(C)[C@H]1[C@@H]2C [Tomatine] | yes | yes | – |
| CCOC1O[C@H]([C@@H](COCc2ccccc2)OCc2ccccc2)[C@H](OCc2ccccc2)[C@H]1O (stereo partly drawn) [Tribenoside] | yes | yes | – |
| C[C@H](CCC(=O)O)[C@H]1CC[C@H]2[C@@H]3[C@@H](O)C[C@@H]4C[C@H](O)CC[C@]4(C)[C@H]3CC[C@]12C [Urosiol] | – | – | Activity on proliferating TG1 CSCs (hit compounds increasing ATP levels) ([3]; primary screen, 24 h): yes |
| Avermectin B1 | yes | yes | – |
